Test results reported in ChEMBL document CHEMBL1201862, “PubChem BioAssay data set” (2004).
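Method: 48-hour compound exposure of cells in 96-well plates, five concentrations, linear interpolation of endpoints. GI50 = concentration required for 50% inhibition of growth.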 Active and inactive are the calls of the source. No stated cut-off is given here; in the data, active = GI50 up to about 1.1 µM and inactive = higher.

Legend:
Test in all cases: NCI-60 cell line screen, 48 h
NCI-H226 = tested on: NCI-H226
786-0 = tested on: 786-0
COLO 205 = tested on: COLO 205
DU-145 = tested on: DU-145
HCT-15 = tested on: HCT-15
SF-539 = tested on: SF-539
SK-OV-3 = tested on: SK-OV-3
SNB-19 = tested on: SNB-19
SR = tested on: SR
RXF 393 = tested on: RXF 393
NCI/ADR-RES = tested on: NCI/ADR-RES
UO-31 = tested on: UO-31
SW-620 = tested on: SW-620
Hs-578T = tested on: Hs-578T
HT-29 = tested on: HT-29
Malme-3M = tested on: Malme-3M
SK-MEL-2 = tested on: SK-MEL-2
M19-MEL = tested on: M19-MEL
HL-60 = tested on: HL-60
SF-295 = tested on: SF-295

Question: O=C(c1nc2ccc([N+](=O)[O-])cc2nc1O)C(O)c1ccc2c(c1)OCO2 (stereo not given) was tested. Which GI50 (NCI-H226) did it give?
Answer: The GI50 was > 100 µM (inactive).

Question: And the GI50 (786-0)?
Answer: The GI50 was > 100 µM (inactive).

Question: And the GI50 (COLO 205)?
Answer: Its GI50 is > 96.4 µM (inactive).

Question: What about the GI50 (DU-145) of the same molecule?
Answer: Its GI50 is > 100 µM (inactive).

Question: What about the GI50 (HCT-15) of the same molecule?
Answer: The GI50 was greater than 62.2 µM.

Question: What about the GI50 (SF-539) of the same molecule?
Answer: Its GI50 is > 100 µM (inactive).

Question: And the GI50 (SK-OV-3)?
Answer: Its GI50 is > 100 µM (inactive).

Question: And the GI50 (SNB-19)?
Answer: The GI50 was > 100 µM (inactive).

Question: And the GI50 (SR)?
Answer: Its GI50 is > 100 µM (inactive).

Question: And the GI50 (RXF 393)?
Answer: The GI50 was > 100 µM (inactive).

Question: And the GI50 (NCI/ADR-RES)?
Answer: The GI50 was > 100 µM (inactive).

Question: What about the GI50 (UO-31) of the same molecule?
Answer: The GI50 was > 100 µM (inactive).

Question: And the GI50 (SW-620)?
Answer: Its GI50 is > 100 µM (inactive).

Question: And the GI50 (Hs-578T)?
Answer: The GI50 was > 100 µM (inactive).

Question: What about the GI50 (HT-29) of the same molecule?
Answer: Its GI50 is > 100 µM (inactive).

Question: And the GI50 (Malme-3M)?
Answer: The GI50 was > 100 µM (inactive).

Question: What about the GI50 (SK-MEL-2) of the same molecule?
Answer: Its GI50 is > 100 µM (inactive).

Question: What about the GI50 (M19-MEL) of the same molecule?
Answer: The GI50 was > 100 µM (inactive).

Question: And the GI50 (HL-60)?
Answer: The GI50 was > 39.1 µM (inactive).

Question: What about the GI50 (SF-295) of the same molecule?
Answer: Its GI50 is > 52.5 µM (inactive).

Question: For O=C1C=CC(=O)c2c1cc1ccccc1c2O, which GI50 (NCI-H226) is on record?
Answer: The GI50 was 20.1 µM (inactive).

Question: What about the GI50 (786-0) of the same molecule?
Answer: The GI50 was 7.67 µM (inactive).

Question: What about the GI50 (COLO 205) of the same molecule?
Answer: The GI50 was 2.4 µM (inactive).

Question: What about the GI50 (DU-145) of the same molecule?
Answer: The GI50 was 14.6 µM (inactive).

Question: And the GI50 (HCT-15)?
Answer: Its GI50 is 4.8 µM.

Question: And the GI50 (SF-539)?
Answer: The GI50 was 11.6 µM (inactive).

Question: What about the GI50 (SK-OV-3) of the same molecule?
Answer: Its GI50 is 18.4 µM (inactive).

Question: And the GI50 (SNB-19)?
Answer: The GI50 was 19.3 µM (inactive).

Question: What about the GI50 (SR) of the same molecule?
Answer: The GI50 was 0.428 µM (active).

Question: What about the GI50 (RXF 393) of the same molecule?
Answer: Its GI50 is 2.11 µM (inactive).

Question: What about the GI50 (NCI/ADR-RES) of the same molecule?
Answer: Its GI50 is 6.18 µM (inactive).

Question: And the GI50 (UO-31)?
Answer: Its GI50 is 3.15 µM (inactive).

Question: What about the GI50 (SW-620) of the same molecule?
Answer: Its GI50 is 1.86 µM (inactive).

Question: What about the GI50 (Hs-578T) of the same molecule?
Answer: The GI50 was 8.22 µM (inactive).

Question: What about the GI50 (HT-29) of the same molecule?
Answer: Its GI50 is 7.53 µM (inactive).

Question: And the GI50 (Malme-3M)?
Answer: Its GI50 is 6.18 µM (inactive).

Question: What about the GI50 (SK-MEL-2) of the same molecule?
Answer: Its GI50 is 14.4 µM (inactive).

Question: What about the GI50 (M19-MEL) of the same molecule?
Answer: The GI50 was 4.01 µM (inactive).

Question: And the GI50 (HL-60)?
Answer: The GI50 was 0.628 µM (active).

Question: And the GI50 (SF-295)?
Answer: Its GI50 is 17.1 µM (inactive).

Question: What does the source list for COc1nc(C(Cl)(Cl)Cl)c(Cl)c(OC)c1Cl [PENCLOMEDINE]?
Answer: GI50 (NCI-H226): 34.4 µM (inactive); GI50 (786-0): 6.59 µM (inactive); GI50 (COLO 205): 44.1 µM (inactive); GI50 (DU-145): 38.7 µM (inactive); GI50 (HCT-15): 40.6 µM; GI50 (SF-539): 40.8 µM (inactive); GI50 (SK-OV-3): 16.2 µM (inactive); GI50 (SNB-19): 27.3 µM (inactive); GI50 (SR): 37.1 µM (inactive); GI50 (RXF 393): 36.7 µM (inactive); GI50 (NCI/ADR-RES): 24.3 µM (inactive); GI50 (UO-31): 40.8 µM (inactive); GI50 (SW-620): 39.4 µM (inactive); GI50 (Hs-578T): 33.3 µM (inactive); GI50 (HT-29): 14.6 µM (inactive); GI50 (Malme-3M): 31.2 µM (inactive); GI50 (SK-MEL-2): 35.1 µM (inactive); GI50 (M19-MEL): 31.5 µM (inactive); GI50 (HL-60): 7.46 µM (inactive); GI50 (SF-295): 40.2 µM (inactive)

Question: What does the source list for CC(C)CC(NC(=O)OC(C)(C)C)C(=O)Nc1ccc(Nc2nc(F)nc(-c3c4ccccc4cn3C)n2)cc1 (stereo not given)?
Answer: GI50 (NCI-H226): > 100 µM (inactive); GI50 (786-0): > 100 µM (inactive); GI50 (COLO 205): 18.6 µM (inactive); GI50 (DU-145): 20.3 µM (inactive); GI50 (HCT-15): > 68.9 µM; GI50 (SF-539): > 93.3 µM (inactive); GI50 (SK-OV-3): > 100 µM (inactive); GI50 (SNB-19): > 86.1 µM (inactive); GI50 (SR): 53.6 µM (inactive); GI50 (RXF 393): 22.2 µM (inactive); GI50 (NCI/ADR-RES): > 100 µM (inactive); GI50 (UO-31): 44.9 µM (inactive); GI50 (SW-620): > 36 µM (inactive); GI50 (Hs-578T): 40.3 µM (inactive); GI50 (HT-29): 23.1 µM (inactive); GI50 (Malme-3M): > 100 µM (inactive); GI50 (SK-MEL-2): > 100 µM (inactive); GI50 (M19-MEL): 97.9 µM (inactive); GI50 (HL-60): 3.94 µM (inactive); GI50 (SF-295): > 81.7 µM (inactive)

Question: With C=COC(=O)N[C@H]1CCc2cc(OC)c(OC)c(OC)c2-c2ccc(SC)c(=O)cc21 as the molecule, how does the GI50 (NCI-H226) read?
Answer: The GI50 was 0.0372 µM (active).

Question: What about the GI50 (786-0) of the same molecule?
Answer: The GI50 was < 0.01 µM (active).

Question: And the GI50 (COLO 205)?
Answer: The GI50 was < 0.01 µM (active).

Question: What about the GI50 (DU-145) of the same molecule?
Answer: The GI50 was < 0.01 µM (active).

Question: And the GI50 (HCT-15)?
Answer: The GI50 was less than 0.01 µM.

Question: What about the GI50 (SF-539) of the same molecule?
Answer: Its GI50 is < 0.01 µM (active).

Question: And the GI50 (SK-OV-3)?
Answer: The GI50 was 0.0255 µM (active).

Question: And the GI50 (SNB-19)?
Answer: The GI50 was 0.0101 µM (active).

Question: And the GI50 (SR)?
Answer: Its GI50 is < 0.01 µM (active).

Question: And the GI50 (RXF 393)?
Answer: The GI50 was < 0.0176 µM (active).

Question: What about the GI50 (NCI/ADR-RES) of the same molecule?
Answer: The GI50 was < 0.01 µM (active).

Question: And the GI50 (UO-31)?
Answer: Its GI50 is < 0.048 µM (active).

Question: And the GI50 (SW-620)?
Answer: The GI50 was < 0.0286 µM (active).

Question: What about the GI50 (Hs-578T) of the same molecule?
Answer: Its GI50 is < 0.01 µM (active).

Question: And the GI50 (HT-29)?
Answer: The GI50 was < 0.01 µM (active).

Question: And the GI50 (Malme-3M)?
Answer: Its GI50 is < 0.01 µM (active).

Question: What about the GI50 (SK-MEL-2) of the same molecule?
Answer: Its GI50 is < 0.01 µM (active).

Question: And the GI50 (M19-MEL)?
Answer: Its GI50 is < 0.01 µM (active).

Question: What about the GI50 (HL-60) of the same molecule?
Answer: Its GI50 is < 0.01 µM (active).

Question: And the GI50 (SF-295)?
Answer: Its GI50 is < 0.01 µM (active).
